Measured values from patent publication US20030130272A1, “Anthracene derivatives as anti-cancer agents” (priority 1999, published 2003).
Counter-ions that a name gives are not always drawn.

Tests used:
MAC 15A cells = test: In vitro activity against MAC 15A adenocarcinoma (MTT assay); type: cell-based; conditions: MAC15A colon adenocarcinoma, 96 hours continuous exposure
Protocol: MAC 15A cells were grown in RPMI 1640 medium supplemented with 10% foetal calf serum containing a 1% antibiotic mixture under standard tissue culture conditions and were maintained at 37° C. in a humidified atmosphere of 5% CO2 in air. Cells were harvested from a stock culture in exponential growth phase and plated in 96-well flat-bottomed plates to achieve a final density of 2×10^3 cells per well. After 2 hours incubation medium was replaced with either fresh medium containing 0.5% DMSO (control) or medium containing test compound dissolved in DMSO at a concentrations from 10 mM to 1 nM. Chemosensitivity was assessed using MTT assay by the method of Plumb et al Cancer Research 49 (1989) 4435-4440.
Following 96 hours continuous exposure to drug at 37° C. cells were incubated with fresh drug-free medium immediately prior to addition of MTT solution (5 mg/ml). Medium and MTT were removed after 4 hours and 150 μl of DMSO was added. For each plate the absorbance of the resulting solution was measured at the analytical wavelength 550 nm for formnazan product, using a Labsystem Mutiskan. IC50 values were obtained from growth curves of drug concentration against % survival and are expressed in μm.
In vitro Cytotoxicity of Spacer Limked Anthraquinone Peptide Conjugates on MAC15A Colon Adenocarcinoma

pBR322 DNA = test: DNA binding assay: fluorescence quenching, displacement of ethidium bromide and Hoechst dye 33258; conditions: for QH50: concentration displacing 50% of Hoechst dye 33258 (groove binder) from DNA; for QE50: concentration displacing 50% of ethidium bromide (intercalator) from DNA
Excerpt: The present inventors have now determined that the introduction of appropriately positioned, conformationally restricted groups into the spacer group of spacer-linked anthraquinone-amino acid or peptide conjugates, allows control of the affinity and mode of binding to DNA. This affinity and mode of binding to DNA is readily determined by fluorescence quenching experiments in which the Q50 values for displacement of ethidium bromide, a DNA intercalator, and for Hoechst 33258 dye, a DNA minor-groove-binder, from which their fluorescent DNA-bound complexes are measured and expressed in μM units of drug concentration (see PCT/GB99/01901 incorporated herein by reference).
The propensity of selected compounds to bind to DNA in the absence of topos was measured in order to identify compounds that would bind weakly, or not at all. […] A […] was used determine binding constants of the compound to DNA by displacement of either ethidium bromide (an intercalator) or Hoechst dye 33258 (a groove binder) which form a DNA-bound fluorescent complex measured by fluorescence spectroscopy.
DNA Binding Assay Protocol
In order to detect the strength and mode of anthraquinone compound binding to DNA the displacement of known DNA binders was detected by measuring the fluorescence of a DNA/fluorescent compound complex. The addition of known concentrations of ethidium bromide, an interchelator, and Hoescht Dye, a groove binder, cause a fluorescent DNA/binder complex that can be detected and the fluorescence quantified. The addition of anthraquinone compounds displaces the interchelators or groove binders, depending on the compound mode of DNA binding, and therefore reduces the fluorescence accordingly. The preferred binding action of compounds can be quantified by determining the reduction in fluorescence resulting from a given concentration of compound. The quantification of a compounds ability to bind to DNA is expressed, as the concentration required to displace 50% of the ethidium bromide or Hocscht Dye, thus reducing the fluorescence by 50%. Therefore, the values produced are QE50 for ethidium, bromide, or QH50 for Hoescht Dye.
Compound: 300, 60, 10 and 10/6 µM (1.66 μM) solution concentrations were prepared for use in the assay to produce a range of compound. Concentrations. 100, 200 and 300 μl of each dilution were used in the assay reaction. This provides a range of concentrations: −30, 20, 10, 6, 4, 2, 1, 0.67, 0.33, 0.17, 0.11, 0.06, 0.00 μM in the assay environment. Intermediate concentrations can be utilised to enhance the accuracy of the displacement concentration determination.
Buffer: 100 mM Tris, NaCI 500 mM. […] Stock solution of 200 μM was prepared in 10× assay buffer. Dilution of DNA therefore provided the correct concentration of assay buffer in the assay cell. 300 μg DNA was used in 3 ml reaction mixture therefore 20 μM DNA concentration. Hoescht Dye 2 μM final concentration, therefore 100 μl of a 60 μM stock solution was added to a 3 ml assay. Ethidium Bromide 2 μM final concentration therefore 100 μl of a 60 μM stock solution was added to a 3 ml assay. Distilled H2O Water was added to produce 3 ml reaction volume. Order of addition: 1. DNA, 2. Water, 3. Drug, 4. Dye
The assay was completed with both Hoescht Dye and Ethidium. Bromide for each compound. The ethidium bromide is a DNA inter-chelator, Hoescht Dye is a minor groove binder. 100, 200 and 30 gμ of the lowest compound dilution was assayed. This procedure was repeated with all further dilution's. This provided a curve of fluorescence intensity decrease with increasing compound concentration. QE50 and QH50 values were determined by extrapolating the concentration of compound at the point where the fluorescence intensity was reduced by 50%. Controls involving compound only and ethidium. bromide or Hoechst Dye without compound were carried out for each experiment. […]

topo I [1] = biological target: T1, topo I (Homo sapiens, UniProt P11387); test: Inhibition of topoisomerase I mediated relaxation of pBR322 DNA; type: biochemical
T1 sequence (P11387 1-765): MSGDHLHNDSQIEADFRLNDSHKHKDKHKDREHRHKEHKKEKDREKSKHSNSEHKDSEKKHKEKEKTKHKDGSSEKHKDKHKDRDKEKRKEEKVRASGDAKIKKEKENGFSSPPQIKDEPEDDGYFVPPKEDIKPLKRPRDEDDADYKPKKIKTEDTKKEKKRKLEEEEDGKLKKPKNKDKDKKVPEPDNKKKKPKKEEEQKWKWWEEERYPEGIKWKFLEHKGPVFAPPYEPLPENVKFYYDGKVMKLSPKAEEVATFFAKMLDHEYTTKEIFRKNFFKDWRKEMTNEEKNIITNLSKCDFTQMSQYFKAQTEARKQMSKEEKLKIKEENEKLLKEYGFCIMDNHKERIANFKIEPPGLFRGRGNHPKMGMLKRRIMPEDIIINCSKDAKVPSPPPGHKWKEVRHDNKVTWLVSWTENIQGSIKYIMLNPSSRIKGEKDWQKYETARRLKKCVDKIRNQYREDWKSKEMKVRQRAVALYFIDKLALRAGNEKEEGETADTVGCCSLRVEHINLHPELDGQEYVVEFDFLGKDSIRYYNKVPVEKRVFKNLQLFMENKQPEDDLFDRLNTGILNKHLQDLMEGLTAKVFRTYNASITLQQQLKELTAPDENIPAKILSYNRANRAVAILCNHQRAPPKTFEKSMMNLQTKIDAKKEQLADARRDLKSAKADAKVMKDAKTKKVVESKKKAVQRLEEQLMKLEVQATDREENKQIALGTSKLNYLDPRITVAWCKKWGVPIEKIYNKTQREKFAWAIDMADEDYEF

topo I [2] = biological target: T1, topo I; test: Stimulation of topoisomerase I mediated cleavage of pBR322 DNA; type: biochemical
Excerpt: To determine the effect of the newly synthesised compounds on the catalytic activity of topo I and II (α and β), specific tests measuring relaxation, decatenation and enzyme-mediated cleavage of DNA were employed using purified human topos.
Simulation of Topoisomerase I Mediated Cleavage of pBR322DNA by Spacer-Linked Anthraquinone-Peptide Conjugates

O=C1c2ccccc2C(=O)c2c1cccc2N1CCNCC1
melting point: 190 °C

Nc1ccc(Nc2cccc3c2C(=O)c2ccccc2C3=O)cc1
melting point: 175 to 182 °C

CN(CCO)c1cccc2c1C(=O)c1c(cccc1N(C)CCO)C2=O
melting point: 168 to 178 °C

1-(2-β-alanylpiperazinyl)anthracene-9,10-dione trifluoroacetate salt [Example 15]
IC50 (MAC 15A cells): 20 µM | QH50 (pBR322 DNA): 1.6 µM | QE50 (pBR322 DNA): 11.4 µM

O=C(O)C(F)(F)F.O=C1c2ccccc2C(=O)c2c1cccc2N1CCNCC1 [Example 4b, 1-(1-piperazinyl)anthracene-9,10-dione trifluoroacetate salt]
melting point: 170 °C | QH50 (pBR322 DNA): 1.7 µM | QE50 (pBR322 DNA): 10.5 µM

O=C1c2ccccc2C(=O)c2c1cccc2N1CCC[C@H]1C(=O)O [Example 6, (2S)-1-(9,10-dioxoanthryl)prrolidine-2-carboxylic acid]
DNA-topoisomerase activity: inhibition of topo I relaxation (topo I [1]; at 100 μM): PARTIAL inhibition at 100 μM

C[C@H](N)C(=O)OC1CCN(c2cccc3c2C(=O)c2ccccc2C3=O)CC1.O=C(O)C(F)(F)F [Example 11, 1-(9,10-dioxoanthryl)-4-piperidyl-(2S)-2-aminopropanoate trifluoroacetate salt]
DNA-topoisomerase activity: inhibition of topo I relaxation (topo I [1]; between 25-100 μM): NO inhibition between 25-100 μM | IC50 (MAC 15A cells): 14 µM

C[C@H](NC(=O)OC(C)(C)C)C(=O)N1CCN(c2cccc3c2C(=O)c2ccccc2C3=O)CC1 [Example 16, 1-(1-N-tertiarybutoxycarbonyl-L-alanylpiperazinyl)anthracene-9,10-dione]
DNA-topoisomerase activity: inhibition of topo I relaxation (topo I [1]; between 25-100 μM): NO inhibition between 25-100 μM

N[C@@H](Cc1ccccc1)C(=O)N1CCN(c2cccc3c2C(=O)c2ccccc2C3=O)CC1.O=C(O)C(F)(F)F [Example 21, 1-(1-L-phenylalanylpiperazinyl)anthracene-9,10-dione trifluoroacetate salt]
DNA-topoisomerase activity: topo I mediated cleavage (topo I [2]; between 10-100 μM): NO CLEAVAGE between 10-100 μM | DNA-topoisomerase activity: inhibition of topo I relaxation (topo I [1]; at 10 μM): COMPLETE inhibition at 10 μM

NCC(=O)NCCCN1CCN(CCCNc2cccc3c2C(=O)c2ccccc2C3=O)CC1.O=C(O)C(F)(F)F.O=C(O)C(F)(F)F.O=C(O)C(F)(F)F [Example 49, 2-amino-N-[3-(4-{3-[(9,10-dioxoanthryl)amino]propyl}piperazinyl)-propyl]acetamide tri-trifluoroacetate salt]
DNA-topoisomerase activity: inhibition of topo I relaxation (topo I [1]; at 25 μM): PARTIAL inhibition | DNA-topoisomerase activity: inhibition of topo I relaxation (topo I [1]; at 50 μM): COMPLETE

CC(C)[C@H](N)C(=O)NCCCN1CCN(CCCNc2cccc3c2C(=O)c2ccccc2C3=O)CC1.O=C(O)C(F)(F)F [Example 55, (2S)-2-amino-N-[3-(4-{3-[(9,10-dioxoanthryl)amino]propyl}-piperazinyl)propyl]-3-methylbutanamide trifluoroacetate salt]
DNA-topoisomerase activity: inhibition of topo I relaxation (topo I [1]; at 25 μM): PARTIAL inhibition | DNA-topoisomerase activity: inhibition of topo I relaxation (topo I [1]; at 50 μM): COMPLETE

N[C@@H](Cc1ccc(O)cc1)C(=O)NCCCN1CCN(CCCNc2cccc3c2C(=O)c2ccccc2C3=O)CC1.O=C(O)C(F)(F)F [Example 63, (2S)-2-amino-N-[3-(4-{3-[(9,10-dioxoanthryl)amino]propyl}-piperazinyl)propyl]-3-(4-hydroxyphenyl)propanamide trifluoroacetate salt]
DNA-topoisomerase activity: inhibition of topo I relaxation (topo I [1]; at 25 μM): PARTIAL inhibition | DNA-topoisomerase activity: inhibition of topo I relaxation (topo I [1]; at 50 μM): COMPLETE

C[C@H](N)C(=O)NC1CCCCC1Nc1cccc2c1C(=O)c1ccccc1C2=O.O=C(O)C(F)(F)F (stereo partly drawn) [Example 66, (2S)-2-amino-N-{2-[(9,10-dioxoanthryl)amino]cyclohexyl}propanamide trifluoroacetate salt]
DNA-topoisomerase activity: inhibition of topo I relaxation (topo I [1]; at 10 μM): COMPLETE inhibition at 10 μM; concentrations | DNA-topoisomerase activity: inhibition of topo I relaxation (topo I [1]; concentrations above 10 μM): above this value antagonised inhibitory activity | IC50 (MAC 15A cells): 6.7 µM

N[C@@H](Cc1ccc(Cl)cc1)C(=O)NC1CCC(Nc2cccc3c2C(=O)c2ccccc2C3=O)CC1 (stereo partly drawn) [Example 94, (2S)-2-amino-N-{4-[(9,10-dioxoanthryl)amino]cyclohexyl}-3-(4-chlorophenyl)propanamide trifluoroacetate salt]
IC50 (MAC 15A cells): 1 µM

O=C1c2c(O)ccc(O)c2C(=O)c2c(NCCNCCO)ccc(NCCNCCO)c21 [Mitoxantrone, reference compound]
QH50 (pBR322 DNA): 1.0 µM | QE50 (pBR322 DNA): 0.35 µM

(2R)-2-amino-N-{4-[(9,10-dioxoanthryl)amino]cyclohexyl}-3-phenylpropanamide trifluoroacetate salt [Example 28]
nicked plasmid DNA (topo I mediated cleavage) (topo I [2]; at 25 μM): 20% nicked plasmid DNA at 25 μM | DNA-topoisomerase activity: inhibition of topo I relaxation (topo I [1]; at 50 μM): PARTIAL inhibition at 50 μM | IC50 (MAC 15A cells): 8 µM

((2S)pyrrolidine-2-yl)-N-[3-(4-{3-[(9,10-dioxoanthryl)amino]propyl}-piperazinyl)propyl]carboxamide trifluoroacetate salt [Example 57]
DNA-topoisomerase activity: inhibition of topo I relaxation (topo I [1]; at 25 μM): PARTIAL inhibition | DNA-topoisomerase activity: inhibition of topo I relaxation (topo I [1]; at 50 μM): COMPLETE | IC50 (MAC 15A cells): 4.6 µM
